Measurements from PMC12645437, “Orthogonal IMiD-Degron Pairs Induce Selective Protein Degradation in Cells” (ACS Chemical Biology, 2025).

Tested on: library of 8380 IKZF3 degrons fused to EGFP in Jurkat cells
Assay: Pooled mutant ZF degron library screen (FACS EGFPlow vs EGFP+, NGS), 18 h;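 as to logFC: Log2 fold change of EGFPlow over EGFP+ representation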
Type: cell-based, human
Details: for Log2FC: WT degron, residues 146/147/149/150/152/153/154/155/167: FQNQGASFL

O=C1CCC(N2C(=O)c3ccccc3C2=O)C(=O)N1 (stereo not shown) [Compound 1, thalidomide, reference compound]
Log2FC (listed as Thal): 1.13
Log2FC (listed as Thalidomide): 1.1337
logFC (degron residues 146/147/149/150/152/153/154/155/167: FADIGAAFL): -0.52
logFC (degron residues 146/147/149/150/152/153/154/155/167: FADIGAAFL, listed as A32): -0.5175
logFC (degron residues 146/147/149/150/152/153/154/155/167: FADIGACFL): -1.27
logFC (degron residues 146/147/149/150/152/153/154/155/167: FADIGACFL, listed as A32): -1.269
logFC (degron residues 146/147/149/150/152/153/154/155/167: FADIGADFL): -2.30
logFC (degron residues 146/147/149/150/152/153/154/155/167: FADIGADFL, listed as A32): -2.302
logFC (degron residues 146/147/149/150/152/153/154/155/167: FADIGAEFL): -1.72
logFC (degron residues 146/147/149/150/152/153/154/155/167: FADIGAEFL, listed as A32): -1.72
logFC (degron residues 146/147/149/150/152/153/154/155/167: FADIGAFFL): -2.34
logFC (degron residues 146/147/149/150/152/153/154/155/167: FADIGAGFL): -1.45
logFC (degron residues 146/147/149/150/152/153/154/155/167: FADIGAHFL): -1.89
logFC (degron residues 146/147/149/150/152/153/154/155/167: FADIGAIFL): -1.38
logFC (degron residues 146/147/149/150/152/153/154/155/167: FADIGAKFL): -0.77
logFC (degron residues 146/147/149/150/152/153/154/155/167: FADIGALFL): -1.99
logFC (degron residues 146/147/149/150/152/153/154/155/167: FADIGAMFL): -1.81
logFC (degron residues 146/147/149/150/152/153/154/155/167: FADIGANFL): -1.52
logFC (degron residues 146/147/149/150/152/153/154/155/167: FADIGAPFL): 0.38
logFC (degron residues 146/147/149/150/152/153/154/155/167: FADIGAQFL): -1.14
logFC (degron residues 146/147/149/150/152/153/154/155/167: FADIGARFL): -0.98
logFC (degron residues 146/147/149/150/152/153/154/155/167: FADIGASFL): -1.01
logFC (degron residues 146/147/149/150/152/153/154/155/167: FADIGATFL): -1.50
logFC (degron residues 146/147/149/150/152/153/154/155/167: FADIGAVFL): -1.28
logFC (degron residues 146/147/149/150/152/153/154/155/167: FADIGAWFL): -2.70
logFC (degron residues 146/147/149/150/152/153/154/155/167: FADIGAYFL): -1.46
logFC (degron residues 146/147/149/150/152/153/154/155/167: FADQGAAFL): -3.14
logFC (degron residues 146/147/149/150/152/153/154/155/167: FADQGACFL): -2.81
logFC (degron residues 146/147/149/150/152/153/154/155/167: FADQGADFL): -2.96
logFC (degron residues 146/147/149/150/152/153/154/155/167: FADQGAEFL): -3.47
logFC (degron residues 146/147/149/150/152/153/154/155/167: FADQGAFFL): -3.47
logFC (degron residues 146/147/149/150/152/153/154/155/167: FADQGAGFL): -2.45
logFC (degron residues 146/147/149/150/152/153/154/155/167: FADQGAHFL): -3.40
logFC (degron residues 146/147/149/150/152/153/154/155/167: FADQGAIFL): -2.61
logFC (degron residues 146/147/149/150/152/153/154/155/167: FADQGAKFL): -2.20
logFC (degron residues 146/147/149/150/152/153/154/155/167: FADQGALFL): -2.67
logFC (degron residues 146/147/149/150/152/153/154/155/167: FADQGAMFL): -2.56
logFC (degron residues 146/147/149/150/152/153/154/155/167: FADQGANFL): -3.17
logFC (degron residues 146/147/149/150/152/153/154/155/167: FADQGAPFL): -2.41
logFC (degron residues 146/147/149/150/152/153/154/155/167: FADQGAQFL): -3.13
logFC (degron residues 146/147/149/150/152/153/154/155/167: FADQGARFL): -2.69
logFC (degron residues 146/147/149/150/152/153/154/155/167: FADQGASFL): -3.41
logFC (degron residues 146/147/149/150/152/153/154/155/167: FADQGATFL): -2.79
logFC (degron residues 146/147/149/150/152/153/154/155/167: FADQGAVFL): -2.29
logFC (degron residues 146/147/149/150/152/153/154/155/167: FADQGAWFL): -2.86
logFC (degron residues 146/147/149/150/152/153/154/155/167: FADQGAYFL): -2.43
logFC (degron residues 146/147/149/150/152/153/154/155/167: FADVGAAFL): -1.13
logFC (degron residues 146/147/149/150/152/153/154/155/167: FADVGACFL): -2.56
logFC (degron residues 146/147/149/150/152/153/154/155/167: FADVGADFL): -2.99
logFC (degron residues 146/147/149/150/152/153/154/155/167: FADVGAEFL): -2.38
logFC (degron residues 146/147/149/150/152/153/154/155/167: FADVGAFFL): -1.98
logFC (degron residues 146/147/149/150/152/153/154/155/167: FADVGAGFL): -2.06
